Tests used:
[1] = biological target: Adenosine receptor A2a (Rattus norvegicus, UniProt P30543)
Description: Binding affinity at Adenosine A2A receptor in rat striatal membrane by [3H]ZM-241385 displacement.

[2] = biological target: T1, Adenosine receptor A1 (Rattus norvegicus, UniProt P25099); experiment: Ability to displace [3H]DPCPX from Adenosine A1 receptor in rat cortical membrane; format: cell membranes
T1 sequence (P25099 whole entry): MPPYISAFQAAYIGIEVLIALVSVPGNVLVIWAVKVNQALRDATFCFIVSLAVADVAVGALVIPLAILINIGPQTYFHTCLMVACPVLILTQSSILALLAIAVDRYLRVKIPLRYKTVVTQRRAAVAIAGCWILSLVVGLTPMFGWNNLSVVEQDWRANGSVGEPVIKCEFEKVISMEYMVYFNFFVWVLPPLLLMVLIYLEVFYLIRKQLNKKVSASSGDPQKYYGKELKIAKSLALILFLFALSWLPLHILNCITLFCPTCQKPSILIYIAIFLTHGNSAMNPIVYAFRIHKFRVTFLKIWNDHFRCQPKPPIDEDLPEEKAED

[3] = biological target: Adenosine receptor A2a (Homo sapiens, UniProt P29274); experiment: G-protein activation in human Adenosine A2A receptor expressed in CHO cells using cAMP assay; format: functional, cell-based
[4] = biological target: T2, Adenosine receptor A1 (Rattus norvegicus) (UniProt P25099); experiment: Ability to displace [3H]DPCPX from Adenosine A1 receptor in rat cortical membrane at 10e-5 M; format: cell membranes
T2 sequence (whole entry): T1 sequence (P25099 whole entry)

[5] = biological target: T3, Adenosine receptor A3 (Homo sapiens, UniProt P0DMS8); experiment: biochemical
T3 sequence (P0DMS8 whole entry): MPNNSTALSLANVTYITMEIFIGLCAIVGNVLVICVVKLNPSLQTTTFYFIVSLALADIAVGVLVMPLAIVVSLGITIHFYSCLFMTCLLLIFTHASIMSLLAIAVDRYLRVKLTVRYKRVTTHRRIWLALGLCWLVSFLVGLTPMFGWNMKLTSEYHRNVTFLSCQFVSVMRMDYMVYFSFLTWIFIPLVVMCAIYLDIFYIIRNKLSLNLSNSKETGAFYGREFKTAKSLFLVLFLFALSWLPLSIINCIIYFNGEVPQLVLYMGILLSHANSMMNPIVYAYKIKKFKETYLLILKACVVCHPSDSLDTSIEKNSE
Description: Binding affinity at human Adenosine A3 receptor expressed in HEK 293 cells by [125I]-AB MECA displacement.

[6] = biological target: T4, Adenosine receptor A3 (Homo sapiens) (UniProt P0DMS8); experiment: Percent inhibition of forskolin induced (10 uM) cAMP production compared to C1-IB-MECA through Adenosine A3 receptor expressed in CHO cells at 100 uM; format: functional, cell-based
T4 sequence (whole entry): T3 sequence (P0DMS8 whole entry)

[7] = biological target: T4, Adenosine receptor A3 (Homo sapiens); experiment: % inhibition of forskolin induced (10 uM) cAMP production compared to C1-IB-MECA through Adenosine A3 receptor expressed in CHO cells at 30 uM; format: functional, cell-based
[8] = biological target: T2, Adenosine receptor A1 (Rattus norvegicus); experiment: Displacement of [3H]DPCPX from Adenosine A1 receptor in rat cortical membrane at 10e-5 M; format: cell membranes

Chain of Adenosine receptor A2a (Homo sapiens, UniProt P29274) (P29274 whole entry): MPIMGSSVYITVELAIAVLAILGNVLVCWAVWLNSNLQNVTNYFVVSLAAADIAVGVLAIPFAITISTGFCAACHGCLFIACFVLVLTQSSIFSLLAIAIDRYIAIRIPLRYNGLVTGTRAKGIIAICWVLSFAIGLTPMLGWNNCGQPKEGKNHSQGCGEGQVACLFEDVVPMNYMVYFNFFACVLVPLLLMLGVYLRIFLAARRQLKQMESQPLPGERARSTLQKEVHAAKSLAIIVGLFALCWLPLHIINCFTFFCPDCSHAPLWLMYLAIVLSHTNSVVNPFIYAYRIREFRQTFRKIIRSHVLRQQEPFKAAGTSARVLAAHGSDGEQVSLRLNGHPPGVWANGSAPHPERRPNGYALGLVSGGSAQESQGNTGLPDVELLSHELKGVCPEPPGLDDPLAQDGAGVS
Chain of Adenosine receptor A2a (Rattus norvegicus, UniProt P30543) (P30543 whole entry): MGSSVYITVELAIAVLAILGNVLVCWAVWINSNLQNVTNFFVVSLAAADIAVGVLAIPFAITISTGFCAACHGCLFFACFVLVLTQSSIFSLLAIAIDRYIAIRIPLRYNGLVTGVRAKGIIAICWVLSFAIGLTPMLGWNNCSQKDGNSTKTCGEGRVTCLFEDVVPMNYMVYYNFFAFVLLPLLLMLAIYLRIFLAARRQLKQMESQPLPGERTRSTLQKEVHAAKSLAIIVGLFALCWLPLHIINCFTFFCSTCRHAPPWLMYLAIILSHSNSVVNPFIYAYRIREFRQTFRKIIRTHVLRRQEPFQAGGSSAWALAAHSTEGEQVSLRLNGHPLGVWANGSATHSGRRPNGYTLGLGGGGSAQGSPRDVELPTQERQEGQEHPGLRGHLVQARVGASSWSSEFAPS

Row | Structure (SMILES) | Ki [1] | Ki [2] | EC50 [3] | Displacement [4] | Ki [5] | Emax [6] | Emax [7] | Displacement [8]
1 | CCCCC#Cc1nc(N)c2ncn([C@@H]3O[C@H](CSC)[C@@H](O)[C@H]3O)c2n1 | 60 nM |  | 700 nM |  |  |  |  | 
2 | CCCSC[C@H]1O[C@@H](n2cnc3c(N)nc(N/N=C/CC(C)C)nc32)[C@H](O)[C@@H]1O | 1500 nM |  | 12900 nM | 22% | 697 nM | 16% |  | 
3 | CSC[C@H]1O[C@@H](n2cnc3c(N)nc(N/N=C/CC(C)C)nc32)[C@H](O)[C@@H]1O | 220 nM |  | 5000 nM | 18.9% | 253 nM |  | 41% | 
4 | CC(C)C/C=N/Nc1nc(N)c2ncn([C@@H]3O[C@H](CSC(C)C)[C@@H](O)[C@H]3O)c2n1 | 1800 nM |  | 10400 nM |  | 409 nM |  | 26% | 13%
5 | CCCCC#Cc1nc(N)c2ncn([C@@H]3O[C@H](CSCC)[C@@H](O)[C@H]3O)c2n1 | 110 nM | 2180 nM | 500 nM |  |  |  |  | 
6 | CC(C)C/C=N/Nc1nc(N)c2ncn([C@@H]3O[C@H](CO)[C@@H](O)[C@H]3O)c2n1 | 20 nM |  | 1100 nM | 18.9% | 38.3 nM |  |  | 
7 | CCCCC#Cc1nc(N)c2ncn([C@@H]3O[C@H](CSC(C)C)[C@@H](O)[C@H]3O)c2n1 | 220 nM | 1270 nM | 3600 nM |  |  |  |  | 
8 | CCCCC#Cc1nc(N)c2ncn([C@@H]3O[C@H](CSCCC)[C@@H](O)[C@H]3O)c2n1 | 170 nM |  | 800 nM |  |  |  |  | 46.5%
9 | CCSC[C@H]1O[C@@H](n2cnc3c(N)nc(N/N=C/CC(C)C)nc32)[C@H](O)[C@@H]1O | 500 nM |  | 7500 nM | 21.2% | 814 nM | 7% |  | 

Second part, the compound after the results:

Row | Ki [1] | Ki [2] | EC50 [3] | Displacement [4] | Ki [5] | Emax [6] | Emax [7] | Displacement [8] | Structure (SMILES)
10 | 3900 nM |  |  |  |  |  |  |  | CSC[C@H]1O[C@@H](n2cnc3c(N)nc(I)nc32)[C@H](O)[C@@H]1O
11 | 440 nM | 1050 nM |  |  |  |  |  |  | CCCSC[C@H]1O[C@@H](n2cnc3c(N)nc(I)nc32)[C@H](O)[C@@H]1O
12 |  |  |  | 36.1% |  |  |  |  | Nc1nc(I)nc2c1ncn2[C@@H]1O[C@H](CO)[C@@H](O)[C@H]1O
13 | 820 nM |  |  | 56.2% |  |  |  |  | CC(C)SC[C@H]1O[C@@H](n2cnc3c(N)nc(I)nc32)[C@H](O)[C@@H]1O
14 | 1200 nM | 386 nM |  |  |  |  |  |  | CCSC[C@H]1O[C@@H](n2cnc3c(N)nc(I)nc32)[C@H](O)[C@@H]1O
